Experimental data as given in article PMC5282848, “Ancient coexistence of norepinephrine, tyramine, and octopamine signaling in bilaterians” (BMC Biology, 2017).
Where two headings read alike, the source gives them in different places.

Legend:
Assay in all cases: Ca2+ mobilization, GFP-apoaequorin luminescence in CHO-K1 with Gα-16
Assay type in all cases: cell-based
[1] = target: T1, P. caudatus α2-adrenergic (Priapulus caudatus, UniProt A0ABM1F9E8)
T1 construct: gene LOC106820961; full-length in pcDNA3.1(+), expressed in CHO-K1 with Gα-16 and GFP-apoaequorin
T1 sequence (A0ABM1F9E8 1-470): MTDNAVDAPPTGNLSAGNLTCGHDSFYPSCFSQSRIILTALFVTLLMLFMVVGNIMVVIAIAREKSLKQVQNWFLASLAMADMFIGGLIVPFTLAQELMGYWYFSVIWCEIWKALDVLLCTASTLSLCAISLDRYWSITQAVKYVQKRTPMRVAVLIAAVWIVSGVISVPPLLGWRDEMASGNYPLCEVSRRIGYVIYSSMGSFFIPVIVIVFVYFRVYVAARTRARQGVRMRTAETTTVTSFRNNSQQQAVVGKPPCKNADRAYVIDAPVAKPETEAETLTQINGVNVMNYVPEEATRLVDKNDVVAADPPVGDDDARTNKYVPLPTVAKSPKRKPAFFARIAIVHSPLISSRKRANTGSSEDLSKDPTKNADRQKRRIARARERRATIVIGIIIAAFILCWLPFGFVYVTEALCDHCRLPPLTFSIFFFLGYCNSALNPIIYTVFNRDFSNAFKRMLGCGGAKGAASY
From the text: Ca2+ mobilization, GFP-apoaequorin luminescence in CHO-K1 with Gα-16 on P. caudatus α2-adrenergic

[2] = target: T2, P. dumerilii α2-adrenergic receptor (Platynereis dumerilii, UniProt A0A1J0F5X6)
T2 construct: full-length in pcDNA3.1(+), expressed in CHO-K1 with Gα-16 and GFP-apoaequorin
T2 sequence (A0A1J0F5X6 1-619): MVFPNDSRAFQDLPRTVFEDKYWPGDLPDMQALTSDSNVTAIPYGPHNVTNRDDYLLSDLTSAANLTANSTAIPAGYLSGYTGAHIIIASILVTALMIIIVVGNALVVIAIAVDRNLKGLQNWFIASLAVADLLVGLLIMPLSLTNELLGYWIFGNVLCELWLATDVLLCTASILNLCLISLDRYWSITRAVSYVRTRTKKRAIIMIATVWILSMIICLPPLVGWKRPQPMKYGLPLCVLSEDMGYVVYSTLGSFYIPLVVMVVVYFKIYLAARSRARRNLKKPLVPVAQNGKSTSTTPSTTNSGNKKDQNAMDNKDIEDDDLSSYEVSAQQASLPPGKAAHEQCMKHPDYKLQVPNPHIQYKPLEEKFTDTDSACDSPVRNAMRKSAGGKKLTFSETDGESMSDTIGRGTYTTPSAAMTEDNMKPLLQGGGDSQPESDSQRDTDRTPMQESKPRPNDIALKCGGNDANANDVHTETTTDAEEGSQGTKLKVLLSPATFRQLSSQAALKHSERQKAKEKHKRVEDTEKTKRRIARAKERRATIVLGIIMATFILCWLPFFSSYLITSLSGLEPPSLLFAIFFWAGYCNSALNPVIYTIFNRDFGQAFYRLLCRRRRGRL
From the text: Ca2+ mobilization, GFP-apoaequorin luminescence in CHO-K1 with Gα-16 on P. dumerilii α2-adrenergic receptor

[3] = target: T3, S. kowalevskii α2-adrenergic (Saccoglossus kowalevskii, UniProt A0ABM0GQ86); settings: read-out: Epinephrine
T3 construct: gene LOC100373264; full-length in pcDNA3.1(+), expressed in CHO-K1 with Gα-16 and GFP-apoaequorin
T3 sequence (A0ABM0GQ86 1-464): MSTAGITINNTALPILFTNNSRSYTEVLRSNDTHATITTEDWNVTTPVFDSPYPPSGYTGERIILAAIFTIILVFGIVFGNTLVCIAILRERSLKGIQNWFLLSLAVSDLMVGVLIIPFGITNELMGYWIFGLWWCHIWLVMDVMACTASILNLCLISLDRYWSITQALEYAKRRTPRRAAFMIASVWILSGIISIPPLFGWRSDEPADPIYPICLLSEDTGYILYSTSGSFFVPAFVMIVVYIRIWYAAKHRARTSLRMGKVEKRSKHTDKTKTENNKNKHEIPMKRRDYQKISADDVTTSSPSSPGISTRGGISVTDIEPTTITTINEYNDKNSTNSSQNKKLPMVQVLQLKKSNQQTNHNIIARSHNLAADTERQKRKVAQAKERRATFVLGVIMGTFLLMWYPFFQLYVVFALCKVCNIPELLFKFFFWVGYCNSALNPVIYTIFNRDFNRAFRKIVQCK
From the text: Ca2+ mobilization, GFP-apoaequorin luminescence in CHO-K1 with Gα-16 on S. kowalevskii α2-adrenergic

[4] = target: T4, Platynereis dumerilii α1-adrenergic receptor (Platynereis dumerilii, UniProt A0A1J0F5Z2); settings: read-out: Norepinephrine
T4 construct: full-length in pcDNA3.1(+), expressed in CHO-K1 with Gα-16 and GFP-apoaequorin
T4 sequence (A0A1J0F5Z2 1-651): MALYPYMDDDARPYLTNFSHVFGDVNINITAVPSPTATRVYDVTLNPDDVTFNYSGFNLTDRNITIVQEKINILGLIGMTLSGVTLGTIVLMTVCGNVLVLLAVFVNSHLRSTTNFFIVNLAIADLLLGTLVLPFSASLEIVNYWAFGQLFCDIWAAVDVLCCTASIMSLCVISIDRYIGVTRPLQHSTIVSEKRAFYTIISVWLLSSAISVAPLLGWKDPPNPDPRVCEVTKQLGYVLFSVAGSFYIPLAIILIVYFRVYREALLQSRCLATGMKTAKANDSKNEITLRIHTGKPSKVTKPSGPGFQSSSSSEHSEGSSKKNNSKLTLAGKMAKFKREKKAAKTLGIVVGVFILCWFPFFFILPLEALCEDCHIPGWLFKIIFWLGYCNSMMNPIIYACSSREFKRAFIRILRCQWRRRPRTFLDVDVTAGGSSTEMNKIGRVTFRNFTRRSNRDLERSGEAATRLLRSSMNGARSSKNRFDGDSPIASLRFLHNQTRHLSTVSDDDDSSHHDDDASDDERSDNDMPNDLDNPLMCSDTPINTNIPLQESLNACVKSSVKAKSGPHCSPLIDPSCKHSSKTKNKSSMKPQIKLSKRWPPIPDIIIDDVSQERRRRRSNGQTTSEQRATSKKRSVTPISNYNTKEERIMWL
From the text: Ca2+ mobilization, GFP-apoaequorin luminescence in CHO-K1 with Gα-16 on Platynereis dumerilii α1-adrenergic receptor

[5] = target: T5, S. kowalevskii α1-adrenergic (Saccoglossus kowalevskii, UniProt A0A0U2M149); settings: read-out: Norepinephrine
T5 construct: full-length in pcDNA3.1(+), expressed in CHO-K1 with Gα-16 and GFP-apoaequorin
T5 sequence (A0A0U2M149 1-774): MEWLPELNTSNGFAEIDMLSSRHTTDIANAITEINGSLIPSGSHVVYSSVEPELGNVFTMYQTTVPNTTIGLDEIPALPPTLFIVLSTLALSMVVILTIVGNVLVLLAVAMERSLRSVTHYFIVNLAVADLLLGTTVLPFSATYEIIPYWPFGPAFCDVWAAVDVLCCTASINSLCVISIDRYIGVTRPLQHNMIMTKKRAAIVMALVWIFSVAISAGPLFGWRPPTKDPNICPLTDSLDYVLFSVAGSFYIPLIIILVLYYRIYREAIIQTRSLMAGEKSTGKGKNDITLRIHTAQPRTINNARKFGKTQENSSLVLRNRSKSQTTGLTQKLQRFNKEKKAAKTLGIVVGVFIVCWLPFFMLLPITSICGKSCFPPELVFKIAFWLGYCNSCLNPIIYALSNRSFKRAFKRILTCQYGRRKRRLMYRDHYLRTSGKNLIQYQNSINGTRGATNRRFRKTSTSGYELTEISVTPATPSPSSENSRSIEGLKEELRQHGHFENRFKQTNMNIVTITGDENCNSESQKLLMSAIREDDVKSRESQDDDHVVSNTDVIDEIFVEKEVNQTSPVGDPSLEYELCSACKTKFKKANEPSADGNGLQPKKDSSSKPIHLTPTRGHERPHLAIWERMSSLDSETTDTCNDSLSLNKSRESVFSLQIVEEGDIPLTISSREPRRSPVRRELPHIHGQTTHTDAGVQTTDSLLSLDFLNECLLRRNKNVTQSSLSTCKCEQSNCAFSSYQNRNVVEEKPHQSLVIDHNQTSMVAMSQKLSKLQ
From the text: Ca2+ mobilization, GFP-apoaequorin luminescence in CHO-K1 with Gα-16 on S. kowalevskii α1-adrenergic

[6] = target: T6, Priapulus caudatus α1-adrenergic (Priapulus caudatus, UniProt A0ABM1DSS1); settings: read-out: Norepinephrine
T6 construct: gene LOC106805782; full-length in pcDNA3.1(+), expressed in CHO-K1 with Gα-16 and GFP-apoaequorin
T6 sequence (A0ABM1DSS1 1-550): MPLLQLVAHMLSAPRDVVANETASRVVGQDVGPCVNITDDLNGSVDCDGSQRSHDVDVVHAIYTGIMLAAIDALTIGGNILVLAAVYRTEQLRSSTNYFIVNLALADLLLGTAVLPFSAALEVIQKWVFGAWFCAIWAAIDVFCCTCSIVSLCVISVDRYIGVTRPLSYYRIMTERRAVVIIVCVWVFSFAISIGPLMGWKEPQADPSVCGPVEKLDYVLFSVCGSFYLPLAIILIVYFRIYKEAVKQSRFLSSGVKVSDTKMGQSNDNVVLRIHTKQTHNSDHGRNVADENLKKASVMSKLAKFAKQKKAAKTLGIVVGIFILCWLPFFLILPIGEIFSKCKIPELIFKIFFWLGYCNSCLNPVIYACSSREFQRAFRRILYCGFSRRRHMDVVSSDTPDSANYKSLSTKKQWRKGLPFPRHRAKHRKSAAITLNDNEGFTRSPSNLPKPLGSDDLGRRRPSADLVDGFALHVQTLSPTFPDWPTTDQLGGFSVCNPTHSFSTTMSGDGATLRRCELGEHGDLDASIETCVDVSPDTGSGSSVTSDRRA
From the text: Ca2+ mobilization, GFP-apoaequorin luminescence in CHO-K1 with Gα-16 on Priapulus caudatus α1-adrenergic

Row | Compound | EC50 ([1]; read-out: Epinephrine) [nM] | EC50 ([2]; read-out: Epinephrine) [nM] | EC50 [3] [nM] | EC50 [4] [nM] | EC50 [5] [nM] | EC50 ([1]; read-out: Norepinephrine) [nM] | EC50 ([2]; read-out: Norepinephrine) [nM] | EC50 [6] [nM]
1 | CNC[C@H](O)c1ccc(O)c(O)c1 [epinephrine] | 450 | 11 | 2.3 |  |  |  |  | 
2 | NC[C@H](O)c1ccc(O)c(O)c1 [norepinephrine] |  |  |  | 210 | 17 | 470 | 8.2 | 7.5
